Patent US20230085307A1, “PYRIDAZINONE COMPOUND AND HERBICIDE” (NISSAN CHEMICAL CORPORATION, priority 2019, published 2023)

Key:
oval-leafed pondweed [1] = assay: Test Example 2: herbicidal activity, application during weed generation under submerged conditions (Table 17, symbol C); assay type: in vivo, oval-leafed pondweed (Monochoria vaginalis); conditions: AAH 320 g/ha; application during weed generation, submerged conditions
How it was run: (§1)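 Wagner pot, alluvial soil, 4 cm flood; mixed sowing of all species; greenhouse 25° C.–30° C. Emulsifiable formulation, water-diluted to predetermined dose, applied to paddy water at 1–2 leaf stage. Effect rated at 3 wk using the earlier test's scoring criteria.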

late watergrass = assay: Test Example 2: herbicidal activity, application during weed generation under submerged conditions (Table 17, symbol A); assay type: in vivo, late watergrass (Echinochloa oryzicola); conditions: AAH 320 g/ha; application during weed generation, submerged conditions
How it was run: as §1

persian speedwell = assay: Test Example 4: herbicidal effect by soil treatment (Table 19, symbol R); assay type: in vivo, Persian speedwell (Veronica persica); conditions: amount of applied herbicide 320 g/ha
How it was run: (§2)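 Emulsion of test compound, water-diluted to predetermined amount, sprayed on soil after sowing (seed depth ~1.5 cm, sterilized diluvial soil). Greenhouse, 25–30° C. Effect graded at three weeks post-spray.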

barnyard grass = assay: Test Example 4: herbicidal effect by soil treatment (Table 19, symbol H); assay type: in vivo, barnyard grass (Echinochloa crus-galli); conditions: amount of applied herbicide 320 g/ha
How it was run: as §2

velvetleaf = assay: Test Example 4: herbicidal effect by soil treatment (Table 19, symbol M); assay type: in vivo, velvetleaf (Abutilon theophrasti); conditions: amount of applied herbicide 320 g/ha
How it was run: as §2

Japanese bulrush = assay: Test Example 2: herbicidal activity, application during weed generation under submerged conditions (Table 17, symbol B); assay type: in vivo, Japanese bulrush (Schoenoplectus juncoides); conditions: AAH 320 g/ha; application during weed generation, submerged conditions
How it was run: as §1

Italian ryegrass = assay: Test Example 4: herbicidal effect by soil treatment (Table 19, symbol K); assay type: in vivo, Italian ryegrass (Lolium multiflorum); conditions: amount of applied herbicide 320 g/ha
How it was run: as §2

chickweed [2] = assay: Test Example 5: herbicidal effect by foliage application, plastic box (Table 20, symbol P); assay type: in vivo, common chickweed (Stellaria media); conditions: 320 g/ha, foliage application after 14-day growth, evaluated three weeks after application
How it was run: (§3)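 Post-emergence foliar test in sterilized diluvial soil. Compound applied as water-diluted emulsion at a predetermined rate to 14-day-old plants; evaluation at three weeks.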

southern crabgrass = assay: Test Example 5: herbicidal effect by foliage application, plastic box (Table 20, symbol F); assay type: in vivo, southern crabgrass (Digitaria ciliaris); conditions: 320 g/ha, foliage application after 14-day growth, evaluated three weeks after application
How it was run: as §3

wild oat [3] = assay: Test Example 4: herbicidal effect by soil treatment (Table 19, symbol I); assay type: in vivo, wild oat (Avena fatua); conditions: amount of applied herbicide 320 g/ha
How it was run: as §2

oval-leafed pondweed [4] = assay: Test Example 1: herbicidal activity, application before weed generation under submerged conditions (Table 16, symbol C); assay type: in vivo, oval-leafed pondweed (Monochoria vaginalis); conditions: amount of applied herbicide 320 g/ha
How it was run: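 Alluvial soil was flooded to 4 cm depth, weed seeds were sown mixed and 2.5-leaf rice seedlings were transplanted. On sowing day, the compound's emulsion, diluted in water to a set dose, was applied to the water surface. Plants grew at 25–30 °C and were scored 0–5 after three weeks.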

chickweed [5] = assay: Test Example 4: herbicidal effect by soil treatment (Table 19, symbol P); assay type: in vivo, common chickweed (Stellaria media); conditions: amount of applied herbicide 320 g/ha
How it was run: as §2

lambsquarters = assay: Test Example 4: herbicidal effect by soil treatment (Table 19, symbol O); assay type: in vivo, lambsquarters (Chenopodium album); conditions: amount of applied herbicide 320 g/ha
How it was run: as §2

windgrass = assay: Test Example 4: herbicidal effect by soil treatment (Table 19, symbol L); assay type: in vivo, windgrass (Apera spica-venti); conditions: amount of applied herbicide 320 g/ha
How it was run: as §2

wild oat [6] = assay: Test Example 5: herbicidal effect by foliage application, plastic box (Table 20, symbol I); assay type: in vivo, wild oat (Avena fatua); conditions: 320 g/ha, foliage application after 14-day growth, evaluated three weeks after application
How it was run: as §3

Structure (SMILES)	herbicidal effect rating, C: oval-leafed pondweed (oval-leafed pondweed [1])	herbicidal effect rating, A: late watergrass (late watergrass)	Herbicidal effect by soil treatment, R: persian speedwell (persian speedwell)	Herbicidal effect by soil treatment, H: barnyard grass (barnyard grass)	Herbicidal effect by soil treatment, M: velvetleaf (velvetleaf)	herbicidal effect rating, B: Japanese bulrush (Japanese bulrush)	Herbicidal effect by soil treatment, K: Italian ryegrass (Italian ryegrass)	herbicidal effect on P: chickweed (evaluation grade 0-5) (chickweed [2])	herbicidal effect on F: southern crabgrass (evaluation grade 0-5) (southern crabgrass)	Herbicidal effect by soil treatment, I: wild oat (wild oat [3])	Herbicidal effect, C: oval-leafed pondweed (oval-leafed pondweed [4])	Herbicidal effect by soil treatment, P: chickweed (chickweed [5])	Herbicidal effect by soil treatment, O: lambsquarters (lambsquarters)	Herbicidal effect by soil treatment, L: windgrass (windgrass)	herbicidal effect on I: wild oat (evaluation grade 0-5) (wild oat [6])
CCCOc1ccc(-c2sc3c(Cl)cccc3c2-c2c(OC(=O)CCC)c(C)nn(C)c2=O)cc1 [4-028]	0 (Herbicidal rate of 5% or less (almost no effect))	3 (Herbicidal rate of 40% or more and less than 70%)	1 (Herbicidal rate of 5% or more and less than 20%)	0 (Herbicidal rate of 5% or less (almost no effect))	1 (Herbicidal rate of 5% or more and less than 20%)	3 (Herbicidal rate of 40% or more and less than 70%)	0 (Herbicidal rate of 5% or less (almost no effect))	5 (Herbicidal rate of 90% or more (almost completely withered))	0 (Herbicidal rate of 5% or less (almost no effect))	0 (Herbicidal rate of 5% or less (almost no effect))	0 (Herbicidal rate of 5% or less (almost no effect))	0 (Herbicidal rate of 5% or less (almost no effect))	4 (Herbicidal rate of 70% or more and less than 90%)	0 (Herbicidal rate of 5% or less (almost no effect))	0 (Herbicidal rate of 5% or less (almost no effect))
CCCC(=O)Oc1c(C)nn(C)c(=O)c1-c1c(-c2ccc(SC)cc2)sc2c(F)cccc12 [4-051]	0 (Herbicidal rate of 5% or less (almost no effect))	3 (Herbicidal rate of 40% or more and less than 70%)	5 (Herbicidal rate of 90% or more (almost completely withered))	0 (Herbicidal rate of 5% or less (almost no effect))	0 (Herbicidal rate of 5% or less (almost no effect))	3 (Herbicidal rate of 40% or more and less than 70%)	4 (Herbicidal rate of 70% or more and less than 90%)	5 (Herbicidal rate of 90% or more (almost completely withered))	0 (Herbicidal rate of 5% or less (almost no effect))	0 (Herbicidal rate of 5% or less (almost no effect))	0 (Herbicidal rate of 5% or less (almost no effect))	4 (Herbicidal rate of 70% or more and less than 90%)	4 (Herbicidal rate of 70% or more and less than 90%)	0 (Herbicidal rate of 5% or less (almost no effect))	4 (Herbicidal rate of 70% or more and less than 90%)
